In patent US10676508B2, “DEPDC1-derived peptide and vaccine containing same” (OncoTherapy Science, Inc., priority 2015, dated 2020):

Test system: peptide-pulsed C1R-A01 cells
Assay: In vitro CTL induction, IFN-gamma ELISPOT assay (HLA-A*0101)
Type: cell-based, human
Settings: CTLs from HLA-A*0101-positive donors, DCs pulsed with 20 micro-g/ml peptide, day 21, versus unpulsed C1R-A01
Description: Monocyte-derived dendritic cells (DCs) were used as the antigen-presenting cell to induce a cytotoxic T lymphocyte (CTL) response against peptides presented on human leukocyte antigens (HLAs). As described in the other sections, DCs were generated in vitro (Nakahara S et al., Cancer Res 2003, 63(14): 4112-8). Specifically, peripheral-blood mononuclear cells isolated from healthy volunteers (HLA-A*0101-positive) with the Ficoll-Paque plus solution (Pharmacia) were separated by attaching to plastic tissue culture dishes (Becton Dickinson) and concentrated as a monocyte fraction. The monocyte-concentrated population was cultured in the presence of 1000 IU/ml granulocyte macrophage colony-stimulating factor (R&D System) and 1000 IU/ml interleukin (IL)-4 (R&D System) in an AIM-V medium (Invitrogen) containing 2% heat-inactivated autologous serum (AS). After seven days of culturing, the cytokine-induced DCs were pulsed with 20 micro-g/ml each of the synthesized peptides in an AIM-V medium at 37 degrees C. for three hours in the presence of 3 micro-g/ml beta 2-microglobulin. Next, these peptide-pulsed DCs were inactivated by X-ray irradiation (20 Gy), and mixed in a 1:20 ratio with autologous CD8^+ T cells obtained by positive selection using the CD8 Positive Isolation Kit (Dynal). These culture products were seeded in a 48-well plate (Corning). Each well was made to contain 1.5×10^4 peptide-pulsed DCs, 3×10^5 CD8^+ T cells and 10 ng/ml IL-7 (R&D System) in 0.5 ml of the AIM-V/2% AS medium. Three days later, these culture products were added with a final concentration of 20 IU/ml IL-2 (CHIRON). On day 7 and day 14, T cells were further stimulated with peptide-pulsed autologous DCs. The DCs were prepared every time by the same method as above. On day 21, after the third peptide stimulation, CTL activities were examined against the peptide-pulsed C1R-A01 cells (Tanaka H et al., Br J Cancer 2001, 84(1): 94-9; Umano Y et al., Br J Cancer 2001, 84(8): 1052-7; Uchida N et al., Clin Cancer Res 2004, 10(24): 8577-86; Suda T et al., Cancer Sci 2006, 97(5): 411-9; Watanabe T et al., Cancer Sci 2005, 96(8): 498-506).
To examine specific CTL activity, an IFN-gamma ELISPOT assay and an IFN-gamma ELISA were performed. Specifically, peptide-pulsed C1R-A01 cells (1×10^4 cells/well) were prepared as the stimulator cell. The induced CTLs, i.e., CTL lines and CTL clones, were used as the responder cell. The IFN-gamma ELISPOT assay and IFN-gamma ELISA were performed according to the manufacturer's manual.

Row | Sequence | peptide-specific CTL activity (IFN-gamma production, ELISPOT)
1 | AGEAVDWLY (a peptide derived from DEPDC1) [SEQ ID NO: 82] | potent IFN-gamma production
2 | ESQGVPPGPY (a peptide derived from DEPDC1) [SEQ ID NO: 91] | potent IFN-gamma production
3 | EVWRYVILIY (a peptide derived from DEPDC1) [SEQ ID NO: 99] | potent IFN-gamma production
4 | FLESKPKQEF (a peptide derived from DEPDC1) [SEQ ID NO: 102] | potent IFN-gamma production
5 | FQKEYPLIY (a peptide derived from DEPDC1) [SEQ ID NO: 87] | potent IFN-gamma production
6 | HQEILQVPSY (a peptide derived from DEPDC1) [SEQ ID NO: 103] | potent IFN-gamma production
7 | HSEENIQKPF (a peptide derived from DEPDC1) [SEQ ID NO: 101] | potent IFN-gamma production
8 | KSDDLPHWV (a peptide derived from DEPDC1) [SEQ ID NO: 81] | potent IFN-gamma production
9 | LFAPLPTYSY (a peptide derived from DEPDC1) [SEQ ID NO: 96] | potent IFN-gamma production
10 | LPEPLLTFEY (a peptide derived from DEPDC1) [SEQ ID NO: 107] | potent IFN-gamma production
11 | LSENSLLPA (a peptide derived from DEPDC1) [SEQ ID NO: 84] | potent IFN-gamma production
12 | LTFEYYELF (a peptide derived from DEPDC1) [SEQ ID NO: 88] | potent IFN-gamma production
13 | NVDDNNQLF (a peptide derived from DEPDC1) [SEQ ID NO: 85] | potent IFN-gamma production
14 | PTTESEAALF (a peptide derived from DEPDC1) [SEQ ID NO: 94] | specific IFN-gamma production was not observed
15 | QEDVEEVWRY (a peptide derived from DEPDC1) [SEQ ID NO: 106] | potent IFN-gamma production
16 | QTAVEKHLDY (a peptide derived from DEPDC1) [SEQ ID NO: 90] | potent IFN-gamma production
17 | RSNDMNNPTY (a peptide derived from DEPDC1) [SEQ ID NO: 58] | potent IFN-gamma production
18 | RSSTRRNSY (a peptide derived from DEPDC1) [SEQ ID NO: 21] | potent IFN-gamma production
19 | SNDMNNPTY (a peptide derived from DEPDC1) [SEQ ID NO: 86] | potent IFN-gamma production
20 | STECLLLSLL (a peptide derived from DEPDC1) [SEQ ID NO: 104] | potent IFN-gamma production
21 | TAGEAVDWLY (a peptide derived from DEPDC1) [SEQ ID NO: 92] | potent IFN-gamma production
22 | TTESEAALF (a peptide derived from DEPDC1) [SEQ ID NO: 83] | potent IFN-gamma production
23 | VSDRSSGIH (a peptide derived from DEPDC1) [SEQ ID NO: 89] | potent IFN-gamma production

Test system: peptide-pulsed C1R-A11
Assay: In vitro CTL induction, IFN-gamma ELISPOT assay (HLA-A*1101)
Type: cell-based, human
Settings: CTLs from HLA-A*1101-positive donors, DCs pulsed with 20 micro-g/ml peptide, day 21, versus unpulsed C1R-A11
Description: Monocyte-derived dendritic cells (DCs) were used as the antigen-presenting cell to induce a cytotoxic T lymphocyte (CTL) response against peptides presented on human leukocyte antigens (HLAs). As described in the other sections, DCs were generated in vitro (Nakahara S et al., Cancer Res 2003, 63(14): 4112-8). Specifically, peripheral-blood mononuclear cells isolated from healthy volunteers (HLA-A*1101-positive) with the Ficoll-Paque plus solution (Pharmacia) were separated by attaching to plastic tissue culture dishes (Becton Dickinson) and concentrated as a monocyte fraction. The monocyte-concentrated population was cultured in the presence of 1000 IU/ml granulocyte macrophage colony-stimulating factor (R&D System) and 1000 IU/ml interleukin (IL)-4 (R&D System) in an AIM-V medium (Invitrogen) containing 2% heat-inactivated autologous serum (AS). After seven days of culturing, the cytokine-induced DCs were pulsed with 20 micro-g/ml each of the synthesized peptides in an AIM-V medium at 37 degrees C. for three hours in the presence of 3 micro-g/ml beta 2-microglobulin.
Next, these peptide-pulsed DCs were inactivated by X-ray irradiation (20 Gy), and mixed in a 1:20 ratio with autologous CD8^+ T cells obtained by positive selection using the CD8 Positive Isolation Kit (Dynal). These culture products were seeded in a 48-well plate (Corning). […]

Row | Sequence | peptide-specific CTL activity (IFN-gamma production, ELISPOT)
24 | ATINKRLCK (a peptide derived from DEPDC1) [SEQ ID NO: 2] | specific IFN-gamma production was not observed
